Measured values reported in patent publication US20090047287A1, “MODULATION OF BONE FORMATION” (Wyeth, priority 2006, published 2009).

T1: purified recombinant human GST-14-3-3β (Biomol), P31946
T1 chain: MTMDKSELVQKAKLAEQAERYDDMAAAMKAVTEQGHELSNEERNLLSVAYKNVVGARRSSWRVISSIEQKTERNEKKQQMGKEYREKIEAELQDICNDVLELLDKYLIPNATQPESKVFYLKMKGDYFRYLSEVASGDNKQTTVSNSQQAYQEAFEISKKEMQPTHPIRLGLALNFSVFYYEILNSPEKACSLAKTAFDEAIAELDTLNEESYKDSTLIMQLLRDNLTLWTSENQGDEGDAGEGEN


Assays:
mouse calvarial bones = assay: Ex vivo mouse calvarial culture with shRNA adenovirus and antibody, histomorphometry (Bioquant); assay type: cell-based; conditions: mouse calvariae, 7 days; shRNA 5×10^7 viral particles/ml, antibody 12 μg/ml; vs scrambled shRNA and IgG
Method: We next tested if in vitro effects of Ror2 activation and 14-3-3β inhibition translate into increased bone formation in ex vivo organ cultures. Calvarial bones of 4 days old mouse littermates were infected with adenoviruses containing scrambled shRNA or 14-3-3β-specific shRNA at 5×10^7 viral particles/ml; and 48 h later were treated with 12 μg/ml of anti-Ror2 antibody or non-specific IgG in presence of 15 μg/ml calcein. After 7 days of culture with adenoviruses and antibodies, the bones were stained with hematoxylin-eosin and consistent 300 μm stretches (450 μm away from frontal sutures) were subjected to histomorphometric analysis using Bioquant-NOVA MR 5.50.8 (Nashville, Tenn.). Under control conditions of scrambled shRNA infection and IgG treatment, 600 μm length of calvaria contained 9394±1333 μm^2 of bone area and 39.5±7.4 osteoblasts.

Ror2 receptor = target: T2, Ror2 receptor (Homo sapiens, UniProt Q01974); assay: Ror2 dimerization in U2OS cells, Flag/His-tagged Ror2 co-immunoprecipitation; assay type: cell-based; conditions: antibody 1 h at 37 C, vs non-specific goat IgG
T2 construct: expressed in transfected cells; host or cells: U2OS
T2 sequence (Q01974 34-943): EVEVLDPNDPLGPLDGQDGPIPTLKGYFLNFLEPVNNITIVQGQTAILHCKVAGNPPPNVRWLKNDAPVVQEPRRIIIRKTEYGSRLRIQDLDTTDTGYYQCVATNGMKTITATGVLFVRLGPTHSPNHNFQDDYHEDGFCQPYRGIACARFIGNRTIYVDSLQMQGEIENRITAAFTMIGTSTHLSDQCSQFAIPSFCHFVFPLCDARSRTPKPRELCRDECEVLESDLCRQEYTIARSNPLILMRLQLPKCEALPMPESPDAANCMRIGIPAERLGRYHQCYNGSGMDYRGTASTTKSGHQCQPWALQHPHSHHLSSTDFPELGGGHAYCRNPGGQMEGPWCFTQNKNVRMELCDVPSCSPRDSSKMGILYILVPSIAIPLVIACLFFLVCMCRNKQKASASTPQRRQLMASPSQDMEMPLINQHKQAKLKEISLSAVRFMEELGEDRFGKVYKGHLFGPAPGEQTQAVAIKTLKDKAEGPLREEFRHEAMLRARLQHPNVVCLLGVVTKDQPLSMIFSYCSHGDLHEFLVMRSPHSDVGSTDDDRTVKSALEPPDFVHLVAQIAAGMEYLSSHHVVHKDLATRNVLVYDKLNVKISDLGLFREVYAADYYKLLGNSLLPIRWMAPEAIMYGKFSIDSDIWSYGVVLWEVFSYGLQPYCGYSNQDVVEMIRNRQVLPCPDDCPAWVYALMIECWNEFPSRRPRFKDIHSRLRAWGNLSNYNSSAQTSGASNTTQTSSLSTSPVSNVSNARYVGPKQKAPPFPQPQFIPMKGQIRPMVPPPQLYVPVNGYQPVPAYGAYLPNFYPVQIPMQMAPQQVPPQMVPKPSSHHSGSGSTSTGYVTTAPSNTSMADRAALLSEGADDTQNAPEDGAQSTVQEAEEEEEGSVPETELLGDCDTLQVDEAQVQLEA
T2 sequence (Q01974 34-943): as above
Method: For Ror2 plasmid transfections, U2OS cells were seeded at ˜80% confluent density and transfected 24 h later with 11 μg of total plasmid DNA per 19.6 cm^2 using Fugene6 transfection reagent (Roche Applied Science, Indianapolis, Ind.) per manufacturer's instructions. For siRNA transfections, U2OS cells were plated on 6-well plates at 52,000 cells/cm^2 and transfected 24 h later with 25 nM of Ror2 siRNA or non-specific siRNA (both from Dharmacon Inc., Lafayette, Colo.) using 10 μl of Lipofectamine 2000 reagent per manufacturer's instructions.
(§1) Cells were solubilized in lysis buffer (150 mM NaCl, 50 mM Tris-HCl, pH 7.5, 1 mM EDTA, 1% Triton X100) supplemented with protease and phosphatase inhibitor cocktails (Sigma) and the extracts were clarified by centrifugation at 10,000×g for 10 min at 4° C. For Flag immunoprecipitation, 1 mg of total cell lysates was incubated with 30 μl of M2 Flag affinity agarose (Sigma) for 1 h with rotation at 4° C. The beads were collected by centrifugation and washed three times in lysis buffer containing 350 mM NaCl and three times in lysis buffer. For 14-3-3β precipitation, 15 μl of 14-3-3β antibody was incubated with 30 μl of protein A sepharose in 1 ml of lysis buffer overnight at 4° C. and the beads were collected by centrifugation and washed in lysis buffer prior to addition of 1 mg of total cell lysates. […]

Ror2 tyrosine kinase = target: T3, Ror2 tyrosine kinase (Homo sapiens, UniProt Q01974); assay: Ror2 activation in U2OS cells, phosphotyrosine precipitation, Ror2 blot; assay type: cell-based; conditions: untransfected U2OS cells, antibody 1 h at 37° C., vs IgG control
T3 construct: western immunoblotting for the endogenous Ror2 protein; endogenous in cells; host or cells: U2OS
T3 sequence (Q01974 34-943): as above
Method: as §1, with “lysates. The binding reaction was carried out for 2 h at 4° C. with mild rotation and the beads were collected and washed as for Flag precipitation. For phosphotyrosine precipitation, 1 mg (for detecting over-expressed proteins) or 1.5 mg (for detecting endogenous proteins) of cellular extract was added to 100 μl of G410 beads and allowed to attach for 3 h at 4° C. At this time, P-Tyr-100 immobilized antibody (100 μl) was added to the mix for an additional 3 h. All beads were collected by centrifugation and washed as for Flag precipitation.” for “lysates.”

14-3-3β protein = assay: Ror2 activation in U2OS cells, phosphotyrosine precipitation, 14-3-3β blot; assay type: cell-based, human; conditions: untransfected U2OS cells, antibody 1 h at 37° C., vs IgG control
Method: as §1, with “lysates. The binding reaction was carried out for 2 h at 4° C. with mild rotation and the beads were collected and washed as for Flag precipitation. For phosphotyrosine precipitation, 1 mg (for detecting over-expressed proteins) or 1.5 mg (for detecting endogenous proteins) of cellular extract was added to 100 μl of G410 beads and allowed to attach for 3 h at 4° C. At this time, P-Tyr-100 immobilized antibody (100 μl) was added to the mix for an additional 3 h. All beads were collected by centrifugation and washed as for Flag precipitation.” for “lysates.”

[1] = system: human mesenchymal stem cells (hMSC); assay: Mineralized matrix formation in hMSC, alizarin red-S staining; assay type: cell-based
Method: Human MSC were seeded at 6,000/cm^2 in 12-, or 6-well plates and allowed to adhere and proliferate overnight. Cells were infected for 24 h in 0.4 ml/cm^2 MSCGM using Ror2, Ror2KD, or β-gal adenoviruses at multiplicity of infection (MOI)=750 in presence of hCAR (MOI=750) to improve infection efficiency. After 24 h, cells were washed once in PBS and MSCGM, MSCGM supplemented with 0.05 mM ascorbic acid and 10 mM β-glycerophosphate, or MSCGM containing adipogenic supplements (PT-3004, Cambrex) were added. Where indicated, 100 nM dexamethasone (dex) and/or the indicated antibodies were added to the medium. For shRNA infection, cells were seeded at 6,000/cm^2 in 12- or 6-well plates and allowed to adhere and proliferate for 3 days. Cells were infected for 72 h in 0.4 ml/cm^2 MSCGM using adenoviruses coding for Ror2-specific shRNA or EGFP-specific shRNA at 4,000 viral particles per cell (based on the original seeding density) in presence of hCAR (MOI=750). After 72 h, cells were washed once in PBS, and MSCGM or MSCGM supplemented with 0.05 mM ascorbic acid, 10 mM β-glycerophosphate were added. Where indicated 100 nM dex and/or specific antibodies were added. Every 5 days, either the entire medium or ½ of it was replaced with fresh medium.
Formation of mineralized nodules by hMSC was determined on 12-well plates by alizarin red-S histochemical staining. The cells and matrix were fixed at RT for 1 h with 70% (v/v) ethanol, washed with de-ionized water and stained for 10 min at RT with 40 mM alizarin red-S, pH 4.2. The stained matrix was washed with de-ionized water and photographed. To quantify the level of alizarin red-S staining, the dye was eluted with 1 ml/well of 10% (w/v) Cetylpyridinium Chloride. Alizarin red-S in the eluted samples was quantified (versus a standard curve of 0-800 μM dye) at 562 nm with a microplate reader.

Ror2-TrkB chimera = target: T4, Ror2-TrkB chimera (Homo sapiens, UniProt Q01974, T245A); assay: Ror2-TrkB chimera CRE-luciferase reporter assay in HEK293 cells; assay type: cell-based; conditions: HEK-CRE cells expressing Ror2-TrkB chimera, 24 h, compared to non-specific IgG
T4 construct: extracellular domain of Ror2 (aa 1-407) fused to the transmembrane and intracellular domains of TrkB (aa 432-822); expressed in transfected cells
T4 sequence (Q01974 with tags, fused parts or gaps T245A): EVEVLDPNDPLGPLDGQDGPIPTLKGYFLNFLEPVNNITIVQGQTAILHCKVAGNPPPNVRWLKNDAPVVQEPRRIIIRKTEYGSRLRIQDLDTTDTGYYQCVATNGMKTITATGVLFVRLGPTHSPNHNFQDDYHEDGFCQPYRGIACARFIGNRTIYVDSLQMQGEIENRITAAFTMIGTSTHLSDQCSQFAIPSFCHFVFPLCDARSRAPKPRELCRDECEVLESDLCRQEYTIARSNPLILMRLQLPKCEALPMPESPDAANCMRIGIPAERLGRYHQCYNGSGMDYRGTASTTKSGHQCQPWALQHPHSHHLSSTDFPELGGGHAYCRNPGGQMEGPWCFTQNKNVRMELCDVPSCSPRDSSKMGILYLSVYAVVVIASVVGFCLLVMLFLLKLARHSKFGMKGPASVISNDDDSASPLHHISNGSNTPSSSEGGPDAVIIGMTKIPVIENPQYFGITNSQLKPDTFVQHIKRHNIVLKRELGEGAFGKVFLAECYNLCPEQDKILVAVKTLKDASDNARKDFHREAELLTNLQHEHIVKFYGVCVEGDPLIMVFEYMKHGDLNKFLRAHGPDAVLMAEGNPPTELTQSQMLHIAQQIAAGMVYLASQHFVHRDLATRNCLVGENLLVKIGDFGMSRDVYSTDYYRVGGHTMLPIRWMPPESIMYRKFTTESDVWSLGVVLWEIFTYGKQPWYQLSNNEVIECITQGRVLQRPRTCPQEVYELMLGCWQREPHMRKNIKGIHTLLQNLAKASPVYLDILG
Excerpt: FIG. 12 illustrates generation of a high throughput, high sensitivity assay for Ror2 activity. A. Schematic representation of the assay that utilizes the signaling pathway of the TrkB receptor. The TrkB receptor is activated by ligand-induced homo-dimerization that causes phosphorylation of Erk and stimulation of the cAMP response element (CRE) in the promoter of target genes. We generated a chimeric receptor consisting of the extracellular domain of Ror2 (aa 1-407) fused to the transmembrane and intracellular domains of TrkB (aa 432-822). When using this chimera, agents that cause Ror2 dimerization activate TrkB signaling pathway and this activation can be assessed by a CRE promoter-luciferase reporter assay. B. HEK293 cells were stably transfected with the Ror2-TrkB chimera and CRE-luciferase plasmids, treated with the indicated amounts of the anti-Ror2 antibody or non-specific IgG for 24 h, and luciferase activity was assessed. Luciferase activity observed upon treatment with the non-specific IgG was set at 1. […]
The TrkB receptor is activated by ligand-induced homo-dimerization that causes phosphorylation of Erk and stimulation of the cAMP response element (CRE) in the promoter of target genes. […] Colonies were grown at 37 C with 350 μg/ml hygromycin and levels of Ror2-TrkB expression were assessed by western immunoblotting and immunocytochemistry. […]

[2] = target: T1, purified recombinant human GST-14-3-3β …

Ror2 homodimer formation (His-tagged with Flag-tagged Ror2) (Ror2 receptor)	autophosphorylation of the Ror2 kinase (Ror2 tyrosine kinase)	luciferase activity (CRE promoter) (Ror2-TrkB chimera)	Molecule	increase in the osteoblast number (mouse calvarial bones) [%]	increase in the total bone area (mouse calvarial bones) [%]	phosphorylation of 14-3-3β protein (14-3-3β protein)	antibody effect on matrix mineralization when Ror2 expression is inhibited ([1]; hMSC infected with Ror2-specific shRNA, 100 nM dex, 9 days)	calcified matrix formation in absence of dex ([1]; hMSC infected with Ror2 adenovirus, no dex, 19 days, vs non-specific goat IgG)	extent of calcified matrix formation (alizarin red-S) ([1]; hMSC, osteogenic cocktail with 100 nM dex, increasing amounts of IgG, 9 days)	in vitro kinase assay, immunoblot with phosphotyrosine antibody [2]
strongly enhanced	significant autophosphorylation	robust dose-dependent increase	anti-Ror2 antibody: Ror2-specific goat polyclonal IgG raised against the extracellular domain of human Ror2, R&D Systems, AF2064	85	50	phosphorylation	disappeared	induced calcified matrix formation	dose-dependently increased	–
–	–	–	purified recombinant GST-tagged cytosolic domain of human Ror2 (Invitrogen) (protein) VCMCRNKQKASASTPQRRQLMASPSQDMEMPLINQHKQAKLKEISLSAVRFMEELGEDRFGKVYKGHLFGPAPGEQTQAVAIKTLKDKAEGPLREEFRHEAMLRARLQHPNVVCLLGVVTKDQPLSMIFSYCSHGDLHEFLVMRSPHSDVGSTDDDRTVKSALEPPDFVHLVAQIAAGMEYLSSHHVVHKDLATRNVLVYDKLNVKISDLGLFREVYAADYYKLLGNSLLPIRWMAPEAIMYGKFSIDSDIWSYGVVLWEVFSYGLQPYCGYSNQDVVEMIRNRQVLPCPDDCPAWVYALMIECWNEFPSRRPRFKDIHSRLRAWGNLSNYNSSAQTSGASNTTQTSSLSTSPVSNVSNARYVGPKQKAPPFPQPQFIPMKGQIRPMVPPPQLYVPVNGYQPVPAYGAYLPNFYPVQIPMQMAPQQVPPQMVPKPSSHHSGSGSTSTGYVTTAPSNTSMADRAALLSEGADDTQNAPEDGAQSTVQEAEEEEEGSVPETELLGDCDTLQVDEAQVQLEA	–	–	–	–	–	–	Ror2c phosphorylated both 14-3-3 β and itself
